Data: PMC8436246 (ACS Medicinal Chemistry Letters, 2021)

Legend:
[1] = test system: EMT6 tumor-implanted BALB/c mice; test: pharmacokinetic-pharmacodynamic experiments in EMT6 tumor-bearing BALB/c mice; type: in vivo
[2] = mouse pharmacokinetic study, oral bioavailability; type: in vivo, C57BL/6 mice
[3] = in vitro stability in mouse hepatocytes; type: in vitro ADME

## O=C(O)[C@H]1NCC[C@H]1CCCB(O)O [Compound 4a]
[1]; 30, 100, 300 mpk BID p.o., 1 h after fourth dose, vs saline control
  serum and tumor arginine levels: substantially elevated
[1]; p.o. 250 mpk BID, 14 day, ± mDX400 i.p. 5 mpk Q5D
  pharmacodynamic effects on serum and tumor arginine levels with or without codosing of mDX400: comparable pharmacodynamic effects
[1]; p.o. 250 mpk BID, alone and with mDX400 (i.p. 5 mpk Q5D), 14 day repeated dosing
  tolerability / body weight: well tolerated

## C[C@H](N)C(=O)N[C@H]1CN[C@H](C(=O)O)[C@@H]1CCCB(O)O [Compound 23]
[2]; 23 dosed orally, 10 mpk, mouse
  combined exposures of 18 and 23 (% F): 27 % F
[2]; mouse pharmacokinetic experiments
  clearance: rapid clearance

## CC(C)[C@H](N)C(=O)N[C@H]1CN[C@H](C(=O)O)[C@@H]1CCCB(O)O [Compound 24a]
[3]
  metabolic stability: good metabolic stability was not achieved
